Source: patent US4336397A, “2,4-Dioxo-4-substituted-1-butanoic acid derivatives useful in treating urinary tract calcium oxalate lithiasis” (Merck & Co., Inc., priority 1980, dated 1982)

Target: T1, pig liver glycolate oxidase (Sus scrofa, UniProt I3LVF1)
T1 construct: The enzyme was pig liver glycolate oxidase; from tissue; host or cells: pig liver
T1 sequence (I3LVF1 1-370): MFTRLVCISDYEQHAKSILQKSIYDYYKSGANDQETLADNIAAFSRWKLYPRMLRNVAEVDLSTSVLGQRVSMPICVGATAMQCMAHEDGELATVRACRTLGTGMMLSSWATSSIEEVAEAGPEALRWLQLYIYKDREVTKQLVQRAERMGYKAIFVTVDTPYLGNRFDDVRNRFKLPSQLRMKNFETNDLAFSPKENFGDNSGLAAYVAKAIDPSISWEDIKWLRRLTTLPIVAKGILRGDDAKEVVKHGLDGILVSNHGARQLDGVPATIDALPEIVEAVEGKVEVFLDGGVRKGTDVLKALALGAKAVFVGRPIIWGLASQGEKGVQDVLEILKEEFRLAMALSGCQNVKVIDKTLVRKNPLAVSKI
Test: Glycolate Oxidase Enzyme Inhibition
Type: biochemical
Conditions: 25° C., 0.10 M phosphate buffer, pH 7.0, 3 mM EDTA; 2×10^-4 M sodium glycolate; initial rates 1 to 3 minutes, 600 nm
Description: The usefulness of the compounds of the present invention in treating urinary tract, especially renal, calcium oxalate lithiasis, is shown by the ability of those compounds to inhibit the glycolate oxidase enzyme. […] The activity of the enzyme, in turn, was measured by following the rate of reduction of sodium 2,6-dichlorophenyl-indophenol by sodium glycolate in the presence of the enzyme. The enzyme was pig liver glycolate oxidase. The reaction was followed spectrophotometrically at 600 nm. The assay was conducted at 25° C. in a 0.10 M phosphate buffer, pH 7.0, containing 3 mM EDTA. Initial substrate concentrations were 5×10^-5 M of […] and 2×10^-4 M of sodium glycolate. Reactions were initiated by the addition of enzyme. Initial rates during the period from 1 to 3 minutes after the addition of enzyme were recorded on a Beckman Acta M-VI spectrophotometer. One control was run simultaneously with three reactions, and all initial rates were adjusted to a common control rate. For further details of this procedure, see Randall et al., J. Med. Chem., 22, 6,612 (1979).

Row | SMILES | IC50 [nM]
1 | O=C(O)C(=O)CC(=O)c1ccc(Cc2ccc(Cl)c(Cl)c2)cc1 [4-[4-(3,4-dichlorophenylmethyl)phenyl]-2,4-dioxo-1-butanoic acid] | 460
2 | O=C(O)C(=O)CC(=O)c1ccc(C2CCCCC2)cc1 [4-(4-cyclohexylphenyl)-2,4-dioxo-1-butanoic acid] | 2500
3 | CCCCCCCCCc1ccc(C(=O)CC(=O)C(=O)O)cc1 [2,4-dioxo-4-(4-nonylphenyl)-1-butanoic acid] | 670
4 | O=C(O)C(=O)CC(=O)c1ccc(-c2ccc(Br)cc2)cc1 [4-[(4'-bromo-1,1'-biphenyl)-4-yl]-2,4-dioxo-1-butanoic acid] | 70
5 | O=C(O)C(=O)CC(=O)c1ccc(C2CCCc3ccccc32)cc1 (centres unmarked) [4-[4-(1,2,3,4-tetrahydro-1-naphthalenyl)phenyl]-2,4-dioxo-1-butanoic acid] | 2100
